According to patent publication US20240207457A1, “CANCER-SPECIFIC POLYPEPTIDE AND USE THEREOF” (THE CATHOLIC UNIVERSITY OF KOREA INDUSTRY-ACADEMIC …, priority 2021, published 2024):
Where no end group is shown, it is not given here.

What was measured:
MKN45 cells [1] = experiment: ROS detection by DCF-DA staining; assay type: cell-based; details: Ce6-peptide with laser irradiation, FIG. 9
Method: To confirm whether cells were killed by photodynamic therapy, DCF-DA staining was performed to check whether cell death, the mechanism of the corresponding treatment, was caused by reactive oxygen species (ROS).

[2] = test system: MKN45 xenograft mouse model; experiment: Local tumor treatment efficacy through peptide and laser irradiation; assay type: in vivo, mice; details: for body weight during the treatment period: laser 200 J
Method: To confirm local tumor treatment efficacy using the peptide, an experiment was performed by dividing the mice in Example 6 into four groups: an untreated group, a group irradiated with a laser beam, a group irradiated with a laser beam after Ce6 administration, and a group irradiated with a laser beam after Ce6-peptide administration. Ce6 and the Ce6-peptide were administered at a concentration of 5 mg/kg into the tail vein. When 4 hours elapsed, the tumor area was irradiated with a laser beam for 9 minutes under conditions based on 200 J and 300 mW.

[3] = test system: AGS, MKN45, and MKN28 gastric cancer cell lines and CCD841 normal cells; experiment: Cellular uptake of Ce6-peptide; assay type: cell-based; details: 10 uM; FIG. 7
Method: (§1) To confirm the tumor-targeting and therapeutic efficacies of the peptide, photodynamic therapy using chlorin e6 (Ce6), a photosensitizer, was performed. First, to confirm the degree of cellular uptake of Ce6-peptide, AGS, MKN45, and MKN28, gastric cancer cell lines, and CCD841 cells, normal cells, were each independently treated with the Ce6-peptide at a concentration of 10 uM.

[4] = test system: MKN45 intraperitoneal metastasis model; experiment: Peptide targeting ability in intraperitoneal metastasis model (IVIS); assay type: in vivo, Balb/c nude mice; details: 5 mg/kg
Method: Through Example 6, the targeting ability in vivo of the peptide was confirmed in the xenograft model using MKN45, the gastric cancer cell line. Accordingly, to further verify the targeting ability in an intraperitoneal metastasis model, the same MKN45 cell line was injected intraperitoneally, and the targeting ability of the peptide was further verified.
Intraperitoneal metastasis was confirmed within two weeks by injecting 1×10^7 of the GFP-tagged MKN45 cell line into 5-week-old Balb/c nude mice. As a result, as shown in FIGS. 14A and 14B, additional infiltration of the cells into the liver, kidney, and spleen tissues and large tumors with a size of about 2 cm were observed.
To confirm the targeting ability of the peptide, modeled mice with intraperitoneal metastasis were treated with Ce6 and the Ce6-peptide at a concentration of 5 mg/kg and autopsied 4 hours after the treatment to confirm the concentration of the substance in the tissues using an IVIS.

MKN45 cells [5] = experiment: Photodynamic therapy cytotoxicity with laser irradiation; assay type: cell-based; details: laser 10 J, 500 mW, 3 cm, 2 minutes 35 seconds
Method: To analyze cytotoxicity through photodynamic therapy, MKN45 cells were treated with Ce6 and the Ce6-peptide at concentrations of 0, 1, 5, 10, 20, 50, 100 nM, and 1 μM and then irradiated with a laser beam based on 10 J, 500 mW, and 3 cm for 2 minutes and 35 seconds.

[6] = test system: MKN45 xenograft mouse model; experiment: Ex vivo tumor-targeting analysis of extracted organs (IVIS); assay type: in vivo, mice; details: organs extracted 4 hours after injection, 5 mg/kg
Method: To confirm the tumor-targeting ability of Ce6-peptide, an in vivo targeting experiment was performed on an MKN45 xenograft mouse model. Ce6 and the Ce6-peptide were injected at a concentration of 5 mg/kg into the tail vein of mice in which a tumor with a diameter of about 8 mm was developed. After 4 hours, the concentration of Ce6 in the tumor was confirmed using an in vivo imaging system (IVIS).
In addition, organs were extracted from each subject 4 hours after the injection to analyze tumor-targeting ability ex vivo using an IVIS.

MKN45 cells [7] = experiment: Dark toxicity experiment without laser irradiation; assay type: cell-based; details: for dark toxicity: 0 to 100 nM and 1 μM, FIGS. 8A and 8B
Method: To analyze cytotoxicity through photodynamic therapy, MKN45 cells were treated with Ce6 and the Ce6-peptide at concentrations of 0, 1, 5, 10, 20, 50, 100 nM, […]

MKN45 xenograft model = experiment: Targeting ability in vivo of Cy5.5-binding peptide; set-up: species or system mice; details: FIGS. 6A and 6B
Method: Through Examples 1 to 3, the gastric cancer-targeting ability of the peptide was confirmed at the cellular level. Accordingly, to confirm the targeting ability in vivo, a xenograft model was created using MKN45 in 5-week-old immunodeficient mice. Then, Cy5.5-binding peptide was injected at a concentration of 50 nM into the tail vein.

[8] = test system: MKN45 gastric cancer cells vs CCD841 normal cells; experiment: FITC fluorescence density by flow cytometer; assay type: cell-based; details: 25, 50, and 100 µM for 1 hour, FIGS. 5A and 5B
Method: In addition, after treating each of the CCD841 cells and the MKN45 cells with FITC-peptide at a concentration of 25, 50, and 100 µM for 1 hour, the FITC fluorescence density was measured using a flow cytometer.

[9] = test system: CCD841 cells and MKN45 cells; experiment: Fluorescence density saturation of FITC-peptide; assay type: cell-based; details: FIG. 4
Method: To confirm the maximum fluorescence absorption capacity of FITC-peptide, CCD841 cells and MKN45 cells were attached to each 8-well chamber. Then, the chamber was treated with the peptide at concentrations of 1, 10, 25, 50, 100, 200, 400, and 800 uM.

tumor tissue = experiment: Tumor tissue treated with FITC-bound target and negative control peptide; details: peptides binding to FITC; FIG. 13
Method: To confirm the tumor-targeting ability of the target peptide, the tumor tissue was treated with both the target peptide and a negative control peptide, not having the attachment ability to tumors, binding to FITC. The negative control peptide is a peptide made by randomly mixing the amino acid positions of the […] peptide sequence “QLMRPPV” (SEQ ID NO: 2).

[10] = test system: AGS, MKN45, and MKN28, the gastric cancer cell lines (vs CCD841 normal colonic epithelial cell line); experiment: Immunochemical staining of FITC-bound phage and peptide (attachment ability); assay type: cell-based; details: bound to FITC, FIG. 2
From the text: (§2) To confirm the attachment abilities, phage No. 24 and the peptide were each independently bound to FITC to perform immunochemical staining.

[11] = test system: HEK293T kidney cells not containing the LGR5 receptor; experiment: Immunochemical staining of FITC-peptide in HEK293T cells; assay type: cell-based; details: bound to FITC, FIG. 3
From the text: as §2

[12] = target: T1, LGR5 protein on gastric cancer cell lines (AGS, MKN45, MKN28) (UniProt O75473 22-907, limits assumed); experiment: cell fluorescence after 10 uM Ce6-peptide on AGS, MKN45 and MKN28 versus CCD841 cells
T1 construct: whole, on cells; also called LGR5 receptor; gastric cancer cell lines containing LGR5
T1 sequence (looked up): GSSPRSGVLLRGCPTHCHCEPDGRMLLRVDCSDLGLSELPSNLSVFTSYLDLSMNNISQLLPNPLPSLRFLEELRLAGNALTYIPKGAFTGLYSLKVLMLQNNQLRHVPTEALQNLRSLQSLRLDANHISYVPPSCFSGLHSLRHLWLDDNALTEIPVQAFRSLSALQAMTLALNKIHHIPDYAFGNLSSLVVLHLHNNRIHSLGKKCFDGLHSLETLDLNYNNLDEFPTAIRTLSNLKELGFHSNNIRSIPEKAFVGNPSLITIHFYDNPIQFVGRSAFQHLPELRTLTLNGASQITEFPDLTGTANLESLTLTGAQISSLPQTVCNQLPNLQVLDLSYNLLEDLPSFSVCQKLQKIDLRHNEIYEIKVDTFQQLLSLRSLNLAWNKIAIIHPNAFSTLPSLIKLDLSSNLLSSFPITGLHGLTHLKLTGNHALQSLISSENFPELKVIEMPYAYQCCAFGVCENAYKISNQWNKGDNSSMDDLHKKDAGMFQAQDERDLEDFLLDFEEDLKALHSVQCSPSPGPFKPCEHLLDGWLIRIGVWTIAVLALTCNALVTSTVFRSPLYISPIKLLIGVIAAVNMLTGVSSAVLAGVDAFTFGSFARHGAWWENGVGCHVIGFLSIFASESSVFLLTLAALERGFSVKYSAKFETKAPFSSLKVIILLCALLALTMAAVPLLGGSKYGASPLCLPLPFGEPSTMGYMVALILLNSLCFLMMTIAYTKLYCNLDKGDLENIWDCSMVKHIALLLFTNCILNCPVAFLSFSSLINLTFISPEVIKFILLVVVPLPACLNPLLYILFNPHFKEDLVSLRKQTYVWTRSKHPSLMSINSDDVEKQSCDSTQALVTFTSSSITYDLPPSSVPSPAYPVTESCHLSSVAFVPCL
Method: as §1

[13] = 5 mg/kg tail vein, 300 mW, 9 minutes
[14] = injected at 50 nM into the tail vein

**Q.** With `OO` [hydrogen peroxide, reference compound] as the molecule, how does the ROS detection (MKN45 cells [1]) read?
**A.** Its ROS detection is “ROS was detected”.

**Q.** “Ce6-peptide: peptide of SEQ ID NO: 1 bound to chlorin e6 (Ce6), a photosensitizer (STCTRSR; also: bound to chlorin e6 (site not given here))” was tested. Which “body weight during the treatment period” value [2, 13] did it give?
**A.** The value was “No change in body weight was observed”.

**Q.** And the “time after the treatment at which tumor necrosis was observed” value ([2]; 5 mg/kg tail vein, laser after 4 hours, 200 J, 300 mW, 9 minutes)?
**A.** Its value is 2 days.

**Q.** And the “tumor size compared with the other groups” value ([2]; on the 7th day, 5 mg/kg plus laser, FIGS. 12A and 12B)?
**A.** The value was “significantly reduced”.

**Q.** And the “fluorescence density, gastric cancer cell lines compared with normal cell line” value [3]?
**A.** The value was “higher”.

**Q.** What about the “concentration in the kidney” value ([4]; 4 hours after the treatment) of the same molecule?
**A.** Its value is “high concentration in the kidney”.

**Q.** What about the “excretion from the body compared with Ce6 alone” value ([4]; 4 hours after the treatment) of the same molecule?
**A.** Its value is “more likely to be excreted from the body”.

**Q.** And the “non-specific binding to other organs compared with Ce6 alone” value ([4]; 4 hours after the treatment)?
**A.** Its value is “less likely to non-specifically bind to other organs”.

**Q.** And the “tumor-targeting ability compared with Ce6 alone” value ([4]; autopsied 4 hours after the treatment, FIGS. 15A and 15B)?
**A.** The value was “better”.

**Q.** And the “concentration from which cells were rapidly killed” value (MKN45 cells [5])?
**A.** Its value is no less than 50 nM.

**Q.** What about the “tumor-targeting ability ex vivo compared with Ce6 alone” value [6] of the same molecule?
**A.** Its value is “significantly better”.

**Q.** What about the dark toxicity (MKN45 cells [7]) of the same molecule?
**A.** The dark toxicity was “significant toxicity was not induced”.

**Q.** And the cells killed (MKN45 cells [7]; 1 μM)?
**A.** Its cells killed is 60%.

**Q.** And the ROS detection (MKN45 cells [1])?
**A.** Its ROS detection is “detected in a concentration-dependent manner”.

**Q.** With “Cy5.5-binding peptide: peptide of SEQ ID NO: 1 bound to Cy5.5, a fluorescent material (STCTRSR; also: bound to Cy5.5 (site not given here))” as the molecule, how does the “tumor-targeting ability compared with the control peptide group” value (MKN45 xenograft model) read?
**A.** Its value is “further better tumor-targeting ability”.

**Q.** What about the “fluorescence density in the tumor tissue” value (MKN45 xenograft model; [14]) of the same molecule?
**A.** The value was “significantly high fluorescence density”.

**Q.** What about the “fluorescence in other organs (heart, lung, liver, spleen, kidney)” value (MKN45 xenograft model; [14]) of the same molecule?
**A.** Its value is “poorly detected”.

**Q.** With “FITC-peptide: peptide of SEQ ID NO: 1 bound to FITC, a fluorescent material (STCTRSR; also: bound to FITC (site not given here))” as the molecule, how does the “FITC fluorescence density value, MKN45 compared with CCD841” value [8] read?
**A.** The value was “increased in a concentration-dependent manner”.

**Q.** And the “concentration from which fluorescence density was saturated in all cells” value ([9]; CCD841 and MKN45 cells)?
**A.** Its value is no less than 100 UM.

**Q.** What about the “concentration at which the difference in fluorescence density values between CCD841 and MKN45 cells was the largest” value ([9]; treated at 1 to 800 uM) of the same molecule?
**A.** The value was 25 UM.

**Q.** STCTRSR (LGR5-targeting peptide) was tested. Which “fluorescence based on FITC attachment to tumor tissue” value (tumor tissue) did it give?
**A.** The value was “significantly high”.

**Q.** What about the “attachment ability, gastric cancer cell lines compared with CCD841” value ([10]; AGS, MKN45, MKN28 vs CCD841 normal colonic epithelial cell line) of the same molecule?
**A.** Its value is “better”.

**Q.** What about the “attachment ability in the MKN45 cell line” value ([10]; MKN45) of the same molecule?
**A.** Its value is “significantly good”.

**Q.** What about the “attachment ability in HEK293T kidney cells” value [11] of the same molecule?
**A.** Its value is “not able to be confirmed”.

**Q.** Which results are given for chlorin e6 [Ce6, reference compound]?
**A.** body weight during the treatment period [2, 13]: No change in body weight was observed; cell killing with laser irradiation (MKN45 cells [5]): cells were not killed; infiltration into the tumor compared with other organs (heart, lung, liver, spleen, kidney) ([6]; FIGS. 11A and 11B): more infiltrated into the tumor than into other organs; dark toxicity (MKN45 cells [7]): significant toxicity was not induced

**Q.** How did the “fluorescence based on FITC attachment to tumor tissue” value (tumor tissue) turn out when “negative control peptide: peptide made by randomly mixing the amino acid positions of the non-specific binding peptide sequence QLMRPPV (SEQ ID NO: 2); bound to FITC (also: bound to FITC (site not given here)) [reference compound]” was run?
**A.** Its value is “not confirmed”.

B1: Ce6-peptide (STCTRSR peptide of SEQ ID NO: 1 bound to chlorin e6) (peptide)
peptide: STCTRSR
modifications: also: chlorin e6 bound to the peptide (site not given here)
notes: also called photosensitizer-peptide composite
**Q.** For B1, which “fold difference in uptake (fluorescence density), gastric cancer cell lines versus normal CCD841 cells” value [12] is on record?
**A.** The value was no less than 11 times.
